Test results taken from patent publication US20140093498A1, “PHARMACEUTICAL COMBINATIONS COMPRISING DUAL ANGIOPOIETIN-2 / DLL4 BINDERS AND ANTI-VEGF-R AGENTS” (BOEHRINGER INGELHEIM INTERNATIONAL GMBH, priority 2012, published 2014).

Assays:
[1] = Body weight losses and deaths in PDX tumor-bearing mice; parameters: species or system nude mice; conditions: mouse, in vivo
Experimental: Tumor diameters were measured twice weekly with a caliper. The volume of each tumor [in mm^3] was calculated according to the formula “tumor volume=length*diameter^2*0.5.” To monitor side effects of treatment, mice were inspected daily for abnormalities and body weight was determined twice weekly. Animals with tumor sizes exceeding 1.5 cm in diameter or 20% body weight loss were euthanized for ethical reasons.

[2] = system: mammary cancer (MAXF 401); assay: MAXF 401 patient-derived tumor xenograft growth in nude mice; assay type: in vivo; conditions: BI-1 13.6 mg/kg i.p. twice weekly, BIBF1120 50 mg/kg p.o. once daily, Bevacizumab 15 mg/kg i.p. twice weekly
Excerpt: (§1) The goal of the present study was to assess the efficacy of BI-1 in combination with Bevacizumab, BIBF1120 or Sunitinib in models of human non small cell lung cancer (LXFE 211, LXFE 1422), colon cancer (CXF 243), mammary cancer (MAXF 401), ovarian cancer (OVXF 1353), pancreatic cancer (PAXF 546) and renal cancer (RXF 1220) in nude mice. All models were patient-derived tumor xenografts (PDX), which were transplanted from patients to nude mice and passaged subcutaneously. These models retain most of the characteristics of the parental patient tumors including histology.
(§2) BI-1 with the sample ID number D11B20V503 was used for this experiment and diluted with PBS. BIBF1120 with the batch chiffre 133562 was suspended in Natrosol 0.5% (Hydroxyethylcellulose Natrosol 250 HX, VWR). […]
(§3) Tumor fragments were obtained from tumor xenografts in serial passage in nude mice. […] Mice were monitored daily. […]
(§4) The doses of BI-1 and Bevacizumab were calculated to the average body weight of all mice on day 1 (28 g) and administered intraperitoneally twice weekly in a volume of 100 μl per mouse. […]
(§5) Tumor diameters were measured twice weekly with a caliper. The volume of each tumor [in mm^3] was calculated according to the formula “tumor volume=length*diameter^2*0.5.” To monitor side effects of treatment, mice were inspected daily for abnormalities and body weight was determined twice weekly. […]

[3] = system: human non-small cell lung cancer (NCI-H1975); assay: Subcutaneous NCI-H1975 xenograft tumor growth in nude mice; assay type: in vivo; conditions: day 14, 2.5 cycles; Bevacizumab 25 mg/kg i.p. twice weekly, BIBF 1120 50 mg/kg p.o. daily, BI-1 13.6 mg/kg i.p. twice weekly
Excerpt: The goal of the present study was to assess the efficacy of BI-1 in combination with Bevacizumab and BIBF 1120 in a model of human non small cell lung cancer (NCI-H1975) in nude mice.
• Model: Subcutaneous xenografts of the human non-small cell lung cancer (NCI-H1975) growing in nude mice
BI-1 with the sample ID number D11B20V503 was used for this experiment and diluted with PBS. BIBF 1120 with the batch chiffre 133562 was suspended in Natrosol 0.5% (Hydroxyethylcellulose Natrosol 250 HX, VWR).
Avastin® (Bevacizumab, 25 mg/ml) was purchased from Roche (Basel, Switzerland), (dissolved in 0.9% saline) was diluted with 0.9% saline.
Mice were 7 week-old female BomTac:NMRI-Foxn1nu purchased from Taconic, Denmark. After arrival, mice were allowed to adjust to ambient conditions for at least 5 days before they were used for the experiments. […]
as §4
Tumor diameters were measured three times a week (Monday, Wednesday and Friday) with a caliper. The volume of each tumor [in mm3] was calculated according to the formula “tumor volume=length*diameter2*π/6.” To monitor side effects of treatment, mice were inspected daily for abnormalities and body weight was determined three times a week (Monday, Wednesday and Friday). […]

[4] = system: human non small cell lung cancer (LXFE 1422); assay: LXFE 1422 patient-derived tumor xenograft growth in nude mice; assay type: in vivo; conditions: BI-1 13.6 mg/kg i.p. twice weekly, BIBF1120 50 mg/kg p.o. once daily, Bevacizumab 15 mg/kg i.p. twice weekly
Excerpt: as §1, §2, §3, §4, §5

[5] = system: ovarian cancer (OVXF 1353); assay: OVXF 1353 patient-derived tumor xenograft growth in nude mice; assay type: in vivo; conditions: BI-1 13.6 mg/kg i.p. twice weekly, BIBF1120 50 mg/kg p.o. once daily
Excerpt: as §1, §2, §3, §4, §5

[6] = system: pancreatic cancer (PAXF 546); assay: PAXF 546 patient-derived tumor xenograft growth in nude mice; assay type: in vivo; conditions: BI-1 13.6 mg/kg i.p. twice weekly, BIBF1120 50 mg/kg p.o. once daily, Bevacizumab 15 mg/kg i.p. twice weekly
Excerpt: as §1, §2, §3, §4, §5

[7] = system: human non small cell lung cancer (LXFE 211); assay: LXFE 211 patient-derived tumor xenograft growth in nude mice; assay type: in vivo; conditions: BI-1 13.6 mg/kg i.p. twice weekly, BIBF1120 50 mg/kg p.o. once daily, Bevacizumab 15 mg/kg i.p. twice weekly
Excerpt: as §1, §2, §3, §4, §5

colon cancer (CXF 243) = assay: CXF 243 patient-derived tumor xenograft growth in nude mice; assay type: in vivo; conditions: BI-1 13.6 mg/kg i.p. twice weekly, BIBF1120 50 mg/kg p.o. once daily, Bevacizumab 15 mg/kg i.p. twice weekly
Excerpt: as §1, §2, §3, §4, §5

renal cancer (RXF 1220) = assay: RXF 1220 patient-derived tumor xenograft growth in nude mice; assay type: in vivo; conditions: BI-1 13.6 mg/kg i.p. twice weekly, Sunitinib 40 mg/kg once daily, Bevacizumab 15 mg/kg i.p. twice weekly
Excerpt: as §1, §2, §3, §4, §5

Row | Molecule | maximum median body weight loss [1] | TGI [%] [2] | median TGI [3] | TGI [%] [4] | TGI [%] [5] | TGI [%] [6] | TGI [%] [7] | TGI [%] (colon cancer (CXF 243)) | TGI [%] (renal cancer (RXF 1220))
1 | CCS(=O)(=O)O.COC(=O)c1ccc2c(c1)NC(=O)/C2=C(\Nc1ccc(N(C)C(=O)CN2CCN(C)CC2)cc1)c1ccccc1 [BIBF1120, 3-Z-[1-(4-(N-((4-methyl-piperazin-1-yl)-methylcarbonyl)-N-methyl-amino)-anilino)-1-phenyl-methylen]-6-methoxycarbonyl-2-indolinon-monoethanesulfonate] | 5.9% | 63% | 75% | 57% | 78% | 69% | 40% | 65% | 
2 | CCN(CC)CCNC(=O)c1c(C)[nH]c(/C=C2\C(=O)Nc3ccc(F)cc32)c1C [Sunitinib] |  |  |  |  |  |  |  |  | 62%
3 | Bevacizumab: VEGF-neutralizing antibody A4.6.1, also called bevacizumab (Avastin®) | 9.1% | 68% | 82% | 63% |  | 59% | 37% |  | 
